Tests used:
[1] = biological target: T1, human recombinant β2 receptors expressed in CHO cells (Homo sapiens, UniProt P07550); assay: Intrinsic activity assessment (β2), cAMP production; format: cell-based; details: % response relative to a procaterol-induced cAMP increase
T1 construct: expressed in transfected cells; host or cells: CHO cells
Method: Intrinsic Activity Assessment (β2)
The intrinsic activity of a test compound is assessed by evaluating its ability to increase cAMP production from human recombinant β2 receptors expressed in CHO cells. Data are expressed as % response relative to a procaterol-induced cAMP increase.

[2] = biological target: T2, adrenergic β1 receptors (Cavia porcellus, UniProt H0W3H1); assay: β1 adrenergic activity (functional), positive chronotropic effect in isolated right atria; set-up: species or system Dunkin Hartley Guinea pigs; details: β1 functional assay, at a concentration of 30 μM
T2 construct: from tissue; host or cells: isolated right atria of Dunkin Hartley guinea pigs

[3] = biological target: T3, human recombinant β2 receptors (Homo sapiens, UniProt P07550); assay: β2 radioligand binding assay
T3 construct: expressed in transfected cells; host or cells: CHO cells
Method: (§1) βi and β2 Radioligand Binding Assays
(§2) The Ki is calculated from the IC50 and the known KD of the radioligand (Cheng and Prusoff's equation).

[4] = biological target: T4, adrenergic β2 receptors (Cavia porcellus, UniProt Q8K4Z4); assay: β2 adrenergic activity (functional), relaxation of spontaneous tone of isolated trachea; set-up: species or system Dunkin Hartley Guinea pigs
T4 construct: from tissue; host or cells: isolated trachea of Dunkin Hartley guinea pigs

[5] = biological target: T5, human recombinant β1 receptors (Homo sapiens, UniProt P08588); assay: β1 radioligand binding assay; details: β1 receptor
T5 construct: expressed in transfected cells; host or cells: CHO cells
Method: as §1, §2

[6] = Stability in aqueous buffered solutions; format: physicochemical
Method: Stability in Aqueous Buffered Solutions
Solution Preparations: For each test compound, the following solutions are prepared. • Solution A is prepared from ˜30 mg of the test compound in 150 mL of 0.005 M citrate buffer, pH 5.0 (˜0.2 mg/mL). • Solution B is prepared as follows: approximately 30 mL aliquot of Solution A is transferred to a separated container and the pH of the solution is adjusted to pH 3.0 with 1 N HCl (˜0.2 mL). • Solution C is prepared as follows: approximately 30 mL aliquot of Solution A is transferred to a separated container and the pH of the solution is adjusted to pH ˜8.0 with 1 N NaOH (˜0.2 mL). • Note: Because the volume of 1 N HCl or 1 N NaOH used for adjusting pH was negligible, the concentration of test compound in Solutions A, B and C were the same.
Storage SCHEME • As soon as the above solutions were prepared, aliquots of each solution were transferred into 11 vials, of which 9 vials are stored at −20° C., and one each is stored at 30° C. and 40° C., respectively. • At each interval listed below, two vials are removed from −20° C. storage, and stored at 30° C. and 40° C., respectively. • The corresponding weeks under the storage condition (30° C. or 40° C.) are shown in the table below.
On Week 12, the last vial stored at −20° C. is removed and warmed up to the room temperature, which is the Day 0 Solution.
Sample Analysis: On Week 12, all solutions are assayed by an HPLC method using the Day 0 Solution at pH 5 as a standard solution. The test compounds were assayed by HPLC with UV detection (refer to Table 1 for method conditions).

T4 sequence (Q8K4Z4 whole entry): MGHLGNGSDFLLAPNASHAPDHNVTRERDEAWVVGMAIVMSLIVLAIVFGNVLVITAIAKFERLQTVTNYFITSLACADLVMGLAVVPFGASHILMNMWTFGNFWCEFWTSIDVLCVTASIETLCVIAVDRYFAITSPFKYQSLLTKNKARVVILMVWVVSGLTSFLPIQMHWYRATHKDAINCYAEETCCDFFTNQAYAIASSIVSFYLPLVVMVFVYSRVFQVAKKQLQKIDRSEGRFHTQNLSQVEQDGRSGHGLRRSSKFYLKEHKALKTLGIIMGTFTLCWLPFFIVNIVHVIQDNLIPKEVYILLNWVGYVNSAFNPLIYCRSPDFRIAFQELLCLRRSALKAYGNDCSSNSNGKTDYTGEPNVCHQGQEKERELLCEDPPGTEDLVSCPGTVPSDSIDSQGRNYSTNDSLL
T5 sequence (P08588 whole entry): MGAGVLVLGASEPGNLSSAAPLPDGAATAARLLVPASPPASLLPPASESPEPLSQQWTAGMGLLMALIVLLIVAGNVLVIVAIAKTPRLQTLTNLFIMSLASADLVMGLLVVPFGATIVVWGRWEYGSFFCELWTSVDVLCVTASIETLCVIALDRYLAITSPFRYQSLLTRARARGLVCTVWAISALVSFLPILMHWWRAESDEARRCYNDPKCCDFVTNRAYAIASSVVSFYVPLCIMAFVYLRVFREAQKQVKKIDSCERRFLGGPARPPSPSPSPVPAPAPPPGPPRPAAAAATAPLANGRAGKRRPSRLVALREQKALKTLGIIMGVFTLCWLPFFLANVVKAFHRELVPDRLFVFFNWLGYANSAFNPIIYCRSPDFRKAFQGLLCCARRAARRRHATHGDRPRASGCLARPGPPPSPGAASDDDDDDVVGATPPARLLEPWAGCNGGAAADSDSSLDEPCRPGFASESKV
T3 sequence (P07550 whole entry): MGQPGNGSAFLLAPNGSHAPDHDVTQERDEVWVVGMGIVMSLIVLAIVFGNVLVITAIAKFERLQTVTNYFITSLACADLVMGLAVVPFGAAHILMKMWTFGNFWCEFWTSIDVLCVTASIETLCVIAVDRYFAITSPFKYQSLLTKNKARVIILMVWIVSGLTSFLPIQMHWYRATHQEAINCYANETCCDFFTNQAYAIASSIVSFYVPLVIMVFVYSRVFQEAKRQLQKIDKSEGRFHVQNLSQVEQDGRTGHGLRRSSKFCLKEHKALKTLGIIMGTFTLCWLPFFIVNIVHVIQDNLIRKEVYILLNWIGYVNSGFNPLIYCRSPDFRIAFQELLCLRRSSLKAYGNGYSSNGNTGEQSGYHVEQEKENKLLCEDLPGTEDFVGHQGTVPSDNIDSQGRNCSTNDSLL
T1 sequence (P07550 whole entry): as above
T2 sequence (H0W3H1 1-470): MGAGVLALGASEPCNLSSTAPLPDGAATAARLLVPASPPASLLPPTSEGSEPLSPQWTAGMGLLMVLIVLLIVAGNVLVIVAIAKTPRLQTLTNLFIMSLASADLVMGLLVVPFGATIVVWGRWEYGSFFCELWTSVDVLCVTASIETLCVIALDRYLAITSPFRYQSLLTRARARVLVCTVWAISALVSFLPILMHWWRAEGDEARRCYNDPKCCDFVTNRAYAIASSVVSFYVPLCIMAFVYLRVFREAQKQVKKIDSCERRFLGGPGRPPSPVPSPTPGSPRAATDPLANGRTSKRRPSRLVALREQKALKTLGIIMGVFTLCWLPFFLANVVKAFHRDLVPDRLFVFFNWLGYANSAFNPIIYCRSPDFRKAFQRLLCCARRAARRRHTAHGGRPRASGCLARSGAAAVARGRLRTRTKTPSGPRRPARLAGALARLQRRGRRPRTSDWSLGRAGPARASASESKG

## COC(=O)Nc1cc([C@H](O)CN[C@H](C)Cc2ccc(O)cc2)ccc1O [Example 1, Carbamic acid, [2-hydroxy-5-[(1S)-1-hydroxy-2-[[(1R)-2-(4-hydroxyphenyl)-1-methylethyl]amino]ethyl]-phenyl]-, methyl ester]
[1]
  Emax: 79%
[2]
  increase in heart rate: 20%
[3]; ratio of Ki β1 to Ki β2
  β1/β2 binding ratio: > 10
[3]; β2 receptor, displacement of [3H]-CGP-12177, CHO cells
  Ki: 990 nM
[4]; ratio of EC50 β1 to EC50 β2
  β1/β2 functional ratio: > 484
[4]; β2, isolated trachea, guinea pig
  EC50: 62 nM
[5]; at a concentration of 20 μM, read-out: inhibition of specific binding
  inhibition at 20 µM: 44%
[5]; displacement of [125I]-cyanopidolol, CHO cells
  Ki: > 10000 nM
[6]; pH 3.0, 30° C., 0 wk
  % of Initial Concentration (0.19847 mg/mL) in pH 5.0: 98.31%
[6]; pH 3.0, 30° C., 1 wk
  % of Initial Concentration (0.19847 mg/mL) in pH 5.0: 99.95%
[6]; pH 3.0, 30° C., 2 wk
  % of Initial Concentration (0.19847 mg/mL) in pH 5.0: 99.12%
[6]; pH 3.0, 30° C., 4 wk
  % of Initial Concentration (0.19847 mg/mL) in pH 5.0: 100.91%
[6]; pH 3.0, 30° C., 8 wk
  % of Initial Concentration (0.19847 mg/mL) in pH 5.0: 101.16%
[6]; pH 3.0, 30° C., 12 wk
  % of Initial Concentration (0.19847 mg/mL) in pH 5.0: 101.54%
[6]; pH 3.0, 40° C., 0 wk
  % of Initial Concentration (0.19847 mg/mL) in pH 5.0: 98.31%
[6]; pH 3.0, 40° C., 1 wk
  % of Initial Concentration (0.19847 mg/mL) in pH 5.0: 98.87%
[6]; pH 3.0, 40° C., 2 wk
  % of Initial Concentration (0.19847 mg/mL) in pH 5.0: 100.33%
[6]; pH 3.0, 40° C., 4 wk
  % of Initial Concentration (0.19847 mg/mL) in pH 5.0: 105.71%
[6]; pH 3.0, 40° C., 8 wk
  % of Initial Concentration (0.19847 mg/mL) in pH 5.0: 106.72%
[6]; pH 3.0, 40° C., 12 wk
  % of Initial Concentration (0.19847 mg/mL) in pH 5.0: 106.51%
[6]; pH 3 or 5, stored at 30° C.
  time for which found to be very stable: at least 12 weeks
[6]; pH 5.0, 30° C., 0 wk
  % of Initial Concentration (0.19847 mg/mL) in pH 5.0: 100.20%
[6]; pH 5.0, 30° C., 1 wk
  % of Initial Concentration (0.19847 mg/mL) in pH 5.0: 99.68%
[6]; pH 5.0, 30° C., 2 wk
  % of Initial Concentration (0.19847 mg/mL) in pH 5.0: 101.08%
[6]; pH 5.0, 30° C., 4 wk
  % of Initial Concentration (0.19847 mg/mL) in pH 5.0: 101.59%
[6]; pH 5.0, 30° C., 8 wk
  % of Initial Concentration (0.19847 mg/mL) in pH 5.0: 105.28%
[6]; pH 5.0, 30° C., 12 wk
  % of Initial Concentration (0.19847 mg/mL) in pH 5.0: 106.61%
[6]; pH 5.0, 40° C., 0 wk
  % of Initial Concentration (0.19847 mg/mL) in pH 5.0: 100.20%
[6]; pH 5.0, 40° C., 1 wk
  % of Initial Concentration (0.19847 mg/mL) in pH 5.0: 100.40%
[6]; pH 5.0, 40° C., 2 wk
  % of Initial Concentration (0.19847 mg/mL) in pH 5.0: 101.07%
[6]; pH 5.0, 40° C., 4 wk
  % of Initial Concentration (0.19847 mg/mL) in pH 5.0: 102.09%
[6]; pH 5.0, 40° C., 8 wk
  % of Initial Concentration (0.19847 mg/mL) in pH 5.0: 104.88%
[6]; pH 5.0, 40° C., 12 wk
  % of Initial Concentration (0.19847 mg/mL) in pH 5.0: 106.74%
[6]; ~pH 8, 30° C., 0 wk
  % of Initial Concentration (0.19847 mg/mL) in pH 5.0: 97.78%
[6]; ~pH 8, 30° C., 1 wk
  % of Initial Concentration (0.19847 mg/mL) in pH 5.0: 69.33%
[6]; ~pH 8, 30° C., 2 wk
  % of Initial Concentration (0.19847 mg/mL) in pH 5.0: 50.77%
[6]; ~pH 8, 30° C., 4 wk
  % of Initial Concentration (0.19847 mg/mL) in pH 5.0: 27.72%
[6]; ~pH 8, 30° C., 8 wk
  % of Initial Concentration (0.19847 mg/mL) in pH 5.0: 6.96%
[6]; ~pH 8, 30° C., 12 wk
  % of Initial Concentration (0.19847 mg/mL) in pH 5.0: 1.24%
[6]; ~pH 8, 40° C., 0 wk
  % of Initial Concentration (0.19847 mg/mL) in pH 5.0: 97.78%
[6]; ~pH 8, 40° C., 1 wk
  % of Initial Concentration (0.19847 mg/mL) in pH 5.0: 30.18%
[6]; ~pH 8, 40° C., 2 wk
  % of Initial Concentration (0.19847 mg/mL) in pH 5.0: 8.85%
[6]; ~pH 8, 40° C., 4 wk
  % of Initial Concentration (0.19847 mg/mL) in pH 5.0: 0.52%
[6]; ~pH 8, 40° C., 8 wk
  % of Initial Concentration (0.19847 mg/mL) in pH 5.0: 0%
[6]; ~pH 8, 40° C., 12 wk
  % of Initial Concentration (0.19847 mg/mL) in pH 5.0: 0%
